# Source: US8916702B2 (priority 2012, dated 2014)
# System: HCV pseudoparticles (genotype 1a HCV E1 and E2 envelope, H77C isolate)
# Experiment: microbe, parasite or virus in culture
# Type: cell-based
# Conditions: Hepatitis C virus, Huh-7, 48 h, HCV pseudoparticles (genotype 1a, H77C) in Huh7 cells; average of duplicate; luciferase 2 days after infection
row,SMILES,EC50
1,CCOc1ccc(NC(=O)C(=O)NC[C@H](NC(=O)c2ccc(Nc3nc(NC4(c5ccc(Cl)cc5)CC4)nc(OCC(F)(F)F)n3)cc2)C(=O)OC)cc1 [Compound 3210],0.75 nM
2,C=Cc1ccc(NC(=O)C(=O)NCC(C)(C)CNC(=O)c2ccc(Nc3nc(NC4(c5ccc(Cl)cc5)CC4)nc(OCC(F)(F)F)n3)cc2F)cc1 [Compound 3515],0.017 nM
3,CONC(=O)C(=O)NCC(C)(C)CNC(=O)c1ccc(Nc2nc(NC3(c4ccc(Cl)cc4)CC3)nc(OCC(F)(F)F)n2)cc1 [Compound 3002],0.044 nM
4,COC(=O)[C@H](CCNC(=O)C(=O)Nc1ccc(-c2cc[nH]n2)cc1)NC(=O)c1ccc(Nc2nc(NC3(c4ccc(Cl)cc4)CC3)nc(OCC(F)(F)F)n2)cc1 [Compound 3310],2.15 nM
5,COC(=O)[C@H](CNC(=O)C(=O)Nc1ccc(C2CCCCC2)cc1)NC(=O)c1ccc(Nc2nc(NC3(c4ccc(Cl)cc4)CC3)nc(OCC(F)(F)F)n2)cc1 [Compound 3079],1.42 nM

# Same assay, conditions: Hepatitis C virus, Huh-7, 48 h, HCV pseudoparticles, Huh7 cells, luciferase 2 days after infection; average of duplicates
row,SMILES,EC50
1,CC(C)c1cccc(NC(=O)C(=O)NCC[C@H](NC(=O)c2ccc(Nc3nc(NC4(c5ccc(Cl)cc5)CC4)nc(OCC(F)(F)F)n3)cc2)C(=O)O)c1 [Compound 3627],0.1 nM

# Same assay, conditions: Hepatitis C virus, Huh-7, 48 h, read-out: Activity (EC50 class), HCV pseudoparticle infection of Huh7 cells, luciferase 2 days after infection; EC50 expressed as class A/B
row,SMILES,EC50
1,CCC1CCC(NC(=O)C(=O)NC[C@H](NC(=O)c2ccc(Nc3nc(NC4(c5ccc(Cl)cc5)CC4)nc(OCC(F)(F)F)n3)cc2)C(=O)O)CC1 (some centres unmarked) [Compound 1093],0.01 to 10 nM
2,COC(=O)[C@H](CCNC(=O)C(=O)NC1CCCCC1C)NC(=O)c1ccc(Nc2nc(NC3(c4ccc(Cl)cc4)CC3)nc(OCC(F)(F)F)n2)cc1 (some centres unmarked) [Compound 1075],0.01 to 10 nM
3,CC(C)(CNC(=O)C(=O)Nc1ccc(-c2nn[nH]n2)cc1)CNC(=O)c1ccc(Nc2nc(NC3(c4ccc(Cl)cc4)CC3)nc(OCC(F)(F)F)n2)cc1 [Compound 1495],0.01 to 10 nM
4,CCOC(=O)[C@H](CCNC(=O)C(=O)NCC1CC1)NC(=O)c1ccc(Nc2nc(NC3(c4ccc(Cl)cc4)CC3)nc(OCC(F)(F)F)n2)cc1 [Compound 1369],0.01 to 10 nM
5,O=C(NCC[C@H](NC(=O)c1ccc(Nc2nc(NC3(c4ccc(Cl)cc4)CC3)nc(OCC(F)(F)F)n2)cc1)C(=O)O)C(=O)NCC1CC1c1cccc(F)c1 (some centres unmarked) [Compound 1448],0.01 to 10 nM
6,COC(=O)[C@H](CNC(=O)C(=O)NCc1cccc(F)c1F)NC(=O)c1ccc(Nc2nc(NC3(c4ccc(Cl)cc4)CC3)nc(OCC(F)(F)F)n2)cc1 [Compound 1148],0.01 to 10 nM
7,Cc1ccc(NC(=O)C(=O)NCC(C)(C)CNC(=O)c2ccc(Nc3nc(NC4(c5ccc(Cl)cc5)CC4)nc(OCC(F)(F)F)n3)cc2)cc1Cl [Compound 1541],0.01 to 10 nM
8,COC(=O)[C@@H](CCNC(=O)C(=O)Nc1ccccc1Cl)NC(=O)c1ccc(Nc2nc(NC3(c4ccc(Cl)cc4)CC3)nc(OCC(F)(F)F)n2)cc1 [Compound 1535],0.01 to 10 nM
9,CC(C)(CNC(=O)C(=O)Nc1ccc(Oc2nn[nH]n2)cc1)CNC(=O)c1ccc(Nc2nc(NC3(c4ccc(Cl)cc4)CC3)nc(OCC(F)(F)F)n2)cc1 [Compound 1490],0.01 to 10 nM
10,COC(=O)[C@H](CCNC(=O)C(=O)N[C@H]1C[C@H]1c1ccccc1)NC(=O)c1ccc(Nc2nc(NC3(c4ccc(Cl)cc4)CC3)nc(OCC(F)(F)F)n2)cc1 [Compound 1317],0.01 to 10 nM
11,"CCOC(=O)[C@H](CCNC(=O)C(=O)NC)NC(=O)c1ccc(Nc2nc(NC3(c4ccc(Cl)cc4)CC3)nc(OCC(F)(F)F)n2)cc1 [Compound 1027, (S)-ethyl 2-(4-(4-(1-(4-chlorophenyl)cyclopropylamino)-6-(2,2,2-trifluoroethoxy)-1,3,5-triazin-2-ylamino)benzamido)-4-(2-(methylamino)-2-oxoacetamido)butanoate]",0.01 to 10 nM
12,COC(=O)[C@H](CCNC(=O)C(=O)NCc1c(F)cccc1F)NC(=O)c1ccc(Nc2nc(NC3(c4ccc(Cl)cc4)CC3)nc(OCC(F)(F)F)n2)cc1 [Compound 1158],0.01 to 10 nM
13,O=C(NCC[C@H](NC(=O)c1ccc(Nc2nc(NC3(c4ccc(Cl)cc4)CC3)nc(OCC(F)(F)F)n2)cc1)C(=O)O)C(=O)NCC1(c2ccccc2)CC1 [Compound 1421],0.01 to 10 nM
14,Cc1ccc(CCNC(=O)C(=O)NC[C@H](NC(=O)c2ccc(Nc3nc(NC4(c5ccc(Cl)cc5)CC4)nc(OCC(F)(F)F)n3)cc2)C(=O)O)cc1 [Compound 1404],0.01 to 10 nM
15,Cc1cc(C)n(CC2(CNC(=O)C(=O)NCC[C@H](NC(=O)c3ccc(Nc4nc(NC5(c6ccc(Cl)cc6)CC5)nc(OCC(F)(F)F)n4)cc3)C(=O)O)CC2)n1 [Compound 1427],0.01 to 10 nM
16,COC(=O)[C@H](CCNC(=O)C(=O)NCc1ccccc1OC)NC(=O)c1ccc(Nc2nc(NC3(c4ccc(Cl)cc4)CC3)nc(OCC(F)(F)F)n2)cc1 [Compound 1155],0.01 to 10 nM

# Same assay, conditions: Hepatitis C virus, Huh-7, 48 h, read-out: Activity (EC50 class), HCV pseudoparticles, Huh7 cells, luciferase 2 days after infection; average of duplicates
row,SMILES,EC50
1,CC(C)(C)c1cccc(NC(=O)C(=O)NC[C@H](NC(=O)c2ccc(Nc3nc(NC4(c5ccc(Cl)cc5)CC4)nc(OCC(F)(F)F)n3)cc2)C(=O)O)c1 [Compound 3760],0.01 to 10 nM
2,CC(C)c1cccc(NC(=O)C(=O)NCC[C@H](NC(=O)c2ccc(Nc3nc(NC4(c5ccc(Cl)cc5)CC4)nc(OCC(F)(F)F)n3)cc2)C(=O)O)c1 [Compound 3627],0.01 to 10 nM
3,O=C(NC[C@H](NC(=O)c1ccc(Nc2nc(NC3(c4ccc(Cl)cc4)CC3)nc(OCC(F)(F)F)n2)cc1)C(=O)O)C(=O)Nc1cccc(CN2CCCC2)c1 [Compound 3778],0.01 to 10 nM
4,CC(C)(CNC(=O)C(=O)Nc1ccc2sccc2c1)CNC(=O)c1ccc(Nc2nc(NC3(c4ccc(Cl)cc4)CC3)nc(OCC(F)(F)F)n2)cc1 [Compound 3666],0.01 to 10 nM
5,COC(=O)[C@H](CNC(=O)C(=O)Nc1ccc(N2CCCC2)nc1)NC(=O)c1ccc(Nc2nc(NC3(c4ccc(Cl)cc4)CC3)nc(OCC(F)(F)F)n2)cc1 [Compound 3721],0.01 to 10 nM

# Same assay, conditions: Hepatitis C virus, Huh-7, read-out: Activity (EC50 class), HCV pseudoparticles (genotype 1a, H77C) in Huh7 cells; EC50 expressed as class A/B
row,SMILES,EC50
1,COc1ccc(C2(Nc3nc(Nc4ccc(C(=O)NCC(C)(C)CNC(=O)C(N)=O)cc4)nc(OCC(F)(F)F)n3)CC2)cc1Cl [Compound 3333],0.01 to 10 nM
2,CC(C)(CNC(=O)c1ccc(Nc2nc(NC3(c4ccc(Cl)cc4)CC3)nc(OCC(F)(F)F)n2)cc1)NC(=O)C(=O)N1CCc2ccccc2C1 [Compound 3440],0.01 to 10 nM
3,O=C(NCCC(NC(=O)c1ccc(Nc2nc(NC3(c4ccc(Cl)cc4)CC3)nc(OCC(F)(F)F)n2)cc1)C(=O)O)C(=O)Nc1ccc(OCCc2ncccn2)cc1 (centres unmarked) [Compound 3536],0.01 to 10 nM
4,CCc1ccccc1NC(=O)C(=O)NCC(C)(C)CNC(=O)c1ccc(Nc2nc(NC3(c4ccc(Cl)cc4)CC3)nc(OCC(F)(F)F)n2)cc1 [Compound 3047],0.01 to 10 nM
5,Cc1ccc(-c2ccccc2NC(=O)C(=O)NCC(C)(C)CNC(=O)c2ccc(Nc3nc(NC4(c5ccc(Cl)cc5)CC4)nc(OCC(F)(F)F)n3)cc2)o1 [Compound 3240],0.01 to 10 nM
6,COc1ccc(NC(=O)C(=O)NCC(C)(C)CNC(=O)c2ccc(Nc3nc(NC4(c5ccc(Cl)cc5)CC4)nc(OCC(F)(F)F)n3)cc2)cc1 [Compound 3007],0.01 to 10 nM
7,O=C(Nc1cccc(F)c1)C(=O)N1CCCC(CNC(=O)c2ccc(Nc3nc(NC4(c5ccc(Cl)cc5)CC4)nc(OCC(F)(F)F)n3)cc2)C1 (centres unmarked) [Compound 3479],0.01 to 10 nM
8,CN(CCCNC(=O)c1ccc(Nc2nc(NC3(c4ccc(Cl)cc4)CC3)nc(OCC(F)(F)F)n2)cc1)C(=O)C(=O)Nc1cccc(F)c1 [Compound 3443],0.01 to 10 nM
9,CCOc1ccc(NC(=O)C(=O)NC[C@H](NC(=O)c2ccc(Nc3nc(NC4(c5ccc(Cl)cc5)CC4)nc(OCC(F)(F)F)n3)cc2)C(=O)OC)cc1 [Compound 3210],0.01 to 10 nM
10,C=Cc1ccc(NC(=O)C(=O)NCC(C)(C)CNC(=O)c2ccc(Nc3nc(NC4(c5ccc(Cl)cc5)CC4)nc(OCC(F)(F)F)n3)cc2F)cc1 [Compound 3515],0.01 to 10 nM
11,CONC(=O)C(=O)NCC(C)(C)CNC(=O)c1ccc(Nc2nc(NC3(c4ccc(Cl)cc4)CC3)nc(OCC(F)(F)F)n2)cc1 [Compound 3002],0.01 to 10 nM
12,CCN(CC)CCNC(=O)c1ccc(NC(=O)C(=O)NCC[C@H](NC(=O)c2ccc(Nc3nc(NC4(c5ccc(Cl)cc5)CC4)nc(OCC(F)(F)F)n3)cc2)C(=O)OC)cc1 [Compound 3117],0.01 to 10 nM
13,COC(=O)[C@H](CCNC(=O)C(=O)Nc1ccc(-c2cc[nH]n2)cc1)NC(=O)c1ccc(Nc2nc(NC3(c4ccc(Cl)cc4)CC3)nc(OCC(F)(F)F)n2)cc1 [Compound 3310],0.01 to 10 nM
14,CC(C)(CNC(=O)C(=O)Nc1ccc(/C=C/c2ccccc2)cc1)CNC(=O)c1ccc(Nc2nc(NC3(c4ccc(Cl)cc4)CC3)nc(OCC(F)(F)F)n2)cc1F [Compound 3564],0.01 to 10 nM
15,CCOCCOc1ccc(NC(=O)C(=O)NCC[C@H](NC(=O)c2ccc(Nc3nc(NC4(c5ccc(Cl)cc5)CC4)nc(OCC(F)(F)F)n3)cc2)C(=O)OC)cc1 [Compound 3309],0.01 to 10 nM
16,NS(=O)(=O)c1ccc(NC(=O)C(=O)NC/C(=N/C(=O)c2ccc(Nc3nc(NC4(c5ccc(Cl)cc5)CC4)nc(OCC(F)(F)F)n3)cc2)C(=O)O)cc1 [Compound 3155],0.01 to 10 nM
17,N#Cc1ccc(NC(=O)C(=O)NC/C(=N/C(=O)c2ccc(Nc3nc(NC4(c5ccc(Cl)cc5)CC4)nc(OCC(F)(F)F)n3)cc2)C(=O)O)cc1 [Compound 3167],0.01 to 10 nM
18,CN(CCCNC(=O)c1ccc(Nc2nc(NC3(c4ccc(Cl)cc4)CC3)nc(OCC(F)(F)F)n2)cc1)C(=O)C(=O)Nc1ccccc1 [Compound 3450],0.01 to 10 nM
19,CC(C)CNC(=O)C(=O)N(C)CCCN(C)C(=O)c1ccc(Nc2nc(NC3(c4ccc(Cl)cc4)CC3)nc(OCC(F)(F)F)n2)cc1 [Compound 3431],0.01 to 10 nM
20,CN(CCCN(C)C(=O)c1ccc(Nc2nc(NC3(c4ccc(Cl)cc4)CC3)nc(OCC(F)(F)F)n2)cc1)C(=O)C(=O)Nc1ccc(F)cc1F [Compound 3426],0.01 to 10 nM
21,COC(=O)[C@H](CNC(=O)C(=O)Nc1ccc(N2CC(C)NC(C)C2)cc1)NC(=O)c1ccc(Nc2nc(NC3(c4ccc(Cl)cc4)CC3)nc(OCC(F)(F)F)n2)cc1 (some centres unmarked) [Compound 3092],0.01 to 10 nM
22,COC(=O)[C@H](CNC(=O)C(=O)Nc1ccc(Oc2ccncc2)cc1)NC(=O)c1ccc(Nc2nc(NC3(c4ccc(Cl)cc4)CC3)nc(OCC(F)(F)F)n2)cc1 [Compound 3206],0.01 to 10 nM
23,COC(=O)[C@H](CNC(=O)C(=O)Nc1ccc(C2CCCCC2)cc1)NC(=O)c1ccc(Nc2nc(NC3(c4ccc(Cl)cc4)CC3)nc(OCC(F)(F)F)n2)cc1 [Compound 3079],0.01 to 10 nM
24,CC(C)(CNC(=O)C(=O)NS(C)(=O)=O)CNC(=O)c1ccc(Nc2nc(NC3(c4ccc(Cl)cc4)CC3)nc(OCC(F)(F)F)n2)cc1 [Compound 3031],0.01 to 10 nM
25,COC(=O)[C@H](CNC(=O)C(=O)Nc1ccc(N2CCCC2=O)cc1)NC(=O)c1ccc(Nc2nc(NC3(c4ccc(Cl)cc4)CC3)nc(OCC(F)(F)F)n2)cc1 [Compound 3097],0.01 to 10 nM
26,COC(=O)[C@H](CCNC(=O)C(=O)Nc1ccc(Cn2cccn2)cc1)NC(=O)c1ccc(Nc2nc(NC3(c4ccc(Cl)cc4)CC3)nc(OCC(F)(F)F)n2)cc1 [Compound 3312],0.01 to 10 nM
